Results as given in PMC8470973, “Multi-Target Actions of Acridones from Atalantia monophylla towards Alzheimer’s Pathogenesis and Their Pharmacokinetic Properties” (Pharmaceuticals, 2021).

Experiments:
[1] = target: T1, AChE from Electrophorus electricus (type VI-S) (Electrophorus electricus, UniProt O42275); test: biochemical; details: Ellman's method, pH 7.4, acetylthiocholine 1 mM; mean ± SD; read-out: Anti-AChE IC50
T1 construct: purchased type VI-S
Method: It is well-known that the cholinergic system plays a vital role in the regulation of the learning, cognitive and memory processes. […] In the present study, all acridones were tested for their inhibition of AChE according to the method of Ellman and co-workers, using tacrine as a reference compound. […] Acridone consists of two benzene rings fused together with a keto group and a nitrogen atom at positions 9 and 10, respectively, resulting in a planar structure.
AChE activity was evaluated and modified from Ellman’s method. All test compounds were prepared as stock solution in ethanol. […] Experiments were performed in triplicates.

[2] = ABTS radical scavenging assay; details: read-out: ABTS Scavenging Activity IC50; mean ± SD, triplicates; 10 to 100 µM tested
Method: In the present study, the antioxidant activity of the 10 acridones was evaluated by ABTS radical scavenging assay and trolox was used as the reference compound.
The antioxidant activity was determined by the decolonization of the radical cation of 2,2′-azinobis-(3-ethylbenzothiazoline-6-sulfonic acid) (ABTS^•+) [60]. […] Prior to the assay, the ABTS^•+ solution was diluted to get an absorbance of 0.70 ± 0.02 at 700 nm with ethanol. Trolox was used as an antioxidant standard. All test and standard compounds were dissolved in ethanol. Fifty microliters of each test compound was added to 100 µL of diluted ABTS^•+ solution to obtain final concentrations from 10 to 100 µM. […] Experiments were performed in independent triplicates.

Aβ1-42 = Aβ1-42 (Homo sapiens, UniProt P05067); test: Inhibition of self-mediated Aβ1-42 aggregation (thioflavin T assay)
Method: The Aβ1-42 self-aggregation process was studied using the thioflavin-T assay [62, 63]. […] All test compounds were dissolved by DMSO.

[3] = tested on: SH-SY5Y neuroblastoma cells; test: Cytotoxicity by MTT assay in SH-SY5Y cells; type: cell-based; details: 0.1–10 µM, 24 h incubation
Method: […]. […] […]. Thus, the acridones were investigated for neuroprotective effects against H2O2 and Aβ1-42 induced toxicity in human SH-SY5Y neuroblastoma cells at the non-toxic concentration of 10 µM.
(§1) Human neuroblastoma cell line SH-SY5Y cells were cultured in Dulbecco’s modified Eagle medium (DMEM)/Ham’s F-12 medium supplemented with 10% fetal bovine serum (FBS), 100 U/mL penicillin and 100 µg/mL streptomycin. Cells were routinely cultured in 75 cm^2 cell culture flasks at 37 °C in 5% CO2. After that, cells were seeded at a density 5 × 10^5 cells/mL in 96-well plates and incubated for an additional 48 h before evaluation.
For the investigation of the toxicity effect of test compounds, cells were treated with test compounds at final concentrations of 0.1, 1, 10, 100 μM for 24 h. […] Then, culture media was replaced with a solution of MTT (0.5 mg/mL) at 37 °C for 2 h to determine survival of cells. Live cells containing formazan crystals were solubilized in 100 µL of DMSO. The absorption was measured by UV spectrometer ([…] Accureader M965) at 570 nm. The percentages of cell viability were calculated in relation to untreated cells.

SH-SY5Y cells [4] = test: Neuroprotection against H2O2-induced cell death in SH-SY5Y cells; type: cell-based, Human; details: 10 µM pre-treatment 24 h, then 250 µM H2O2 for 2 h
Method: (§2) To examine the neuroprotective effects of acridones against H2O2, SH-SY5Y cells were pre-treated with 10 µM citrusinine II and glycosparvarine for 24 h before exposure to 250 µM H2O2 for 2 h. […] The cytotoxic effects of H2O2 were attenuated by pre-treating cells with citrusinine II and glycosparvarine (Figure 8). For evaluation of the neuroprotective effects of acridones against Aβ1-42 toxicity, SH-SY5Y cells were pre-treated with 10 µM citrusinine II and glycosparvarine for 24 h, followed by 25 µM Aβ1-42 for 24 h. Cell viability was determined by MTT assay.
as §1
For evaluation of the neuroprotective effect against H2O2 induced cell damage, cells were pretreated with test compounds or a reference standard at the concentration of 10 μM for 24 h. After treatment, the medium was removed, and cells were washed with phosphate buffer saline to remove unabsorbed test compounds. […] The cell viability was determined by MTT assay.

SH-SY5Y cells [5] = test: Neuroprotection against Aβ1-42-induced cell death in SH-SY5Y cells; type: cell-based, Human; details: 10 µM pre-treatment 24 h, then 25 µM Aβ1-42 for 24 h
Method: as §2, §1
For neuroprotection against Aβ1–42 toxicity, the Aβ1–42 preparation was modified from Thiratmatrakul et al.. Briefly, lyophilized Aβ1–42 was reconstituted in sterile water and kept at –80 °C until use. […] Twenty-four hours later, cell viability was determined by the MTT colorimetric method. […]

Chain of Aβ1-42 (P05067 672-713 limits assumed): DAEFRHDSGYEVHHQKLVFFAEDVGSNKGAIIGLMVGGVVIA
T1 sequence (O42275 24-633): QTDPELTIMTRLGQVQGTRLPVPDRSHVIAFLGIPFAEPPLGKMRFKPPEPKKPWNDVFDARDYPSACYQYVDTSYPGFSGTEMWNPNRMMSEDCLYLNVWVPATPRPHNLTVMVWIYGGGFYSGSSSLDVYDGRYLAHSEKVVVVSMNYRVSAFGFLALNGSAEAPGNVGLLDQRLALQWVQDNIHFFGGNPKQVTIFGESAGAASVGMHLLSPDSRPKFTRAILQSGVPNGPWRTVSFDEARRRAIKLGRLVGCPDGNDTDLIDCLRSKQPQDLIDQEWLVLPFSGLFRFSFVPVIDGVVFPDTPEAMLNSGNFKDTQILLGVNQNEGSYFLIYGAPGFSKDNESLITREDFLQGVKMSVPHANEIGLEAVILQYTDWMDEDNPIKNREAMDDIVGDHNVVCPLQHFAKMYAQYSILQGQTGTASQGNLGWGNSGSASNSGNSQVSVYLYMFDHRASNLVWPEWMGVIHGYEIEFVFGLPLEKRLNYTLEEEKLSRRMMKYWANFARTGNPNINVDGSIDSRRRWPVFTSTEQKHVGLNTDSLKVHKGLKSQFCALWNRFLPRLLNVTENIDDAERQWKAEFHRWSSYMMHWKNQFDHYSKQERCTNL

SMILES	IC50 [1]	IC50 [2]	IC50 (Aβ1-42)	Effect on viability of SH-SY5Y cells (MTT) [3]	Neuroprotective effect against H2O2-induced loss of cell viability (MTT) (SH-SY5Y cells [4])	Neuroprotective effect against Aβ1-42 toxicity (MTT) (SH-SY5Y cells [5])
CC(C)=CCc1c(O)c(CC=C(C)C)c2[nH]c3c(O)cccc3c(=O)c2c1O [Atalaphylline, atalaphylline]	58.3 ± 2.99 µM	46.2 ± 2.31 µM	6.58 ± 1.3 µM			
CC(C)=CCc1c2c(c3[nH]c4c(O)cccc4c(=O)c3c1O)C=CC(C)(C)O2 [Atalaphyllinine, atalaphyllinine]	60.8 ± 4.62 µM	53 ± 1.83 µM	4.79 ± 0.67 µM			
COc1cc2[nH]c3c(O)cccc3c(=O)c2c(O)c1CC=C(C)C [Buxifoliadine C, buxifoliadine C]	50.8 ± 3.74 µM	21.8 ± 2.71 µM	8.81 ± 3.62 µM			
COc1c(O)c(OC)c2c(c1O)c(=O)c1cccc(O)c1n2C [Citruscridone, citruscridone]	47 ± 2.4 µM	31.7 ± 0.56 µM	8.61 ± 0.75 µM			
COc1cc(O)c2c(=O)c3cccc(O)c3n(C)c2c1OC [Citrusinine I, citrusinine I]	35.4 ± 1.61 µM	33.77 ± 0.29 µM	7.05 ± 1.45 µM			
COc1c(O)cc(O)c2c(=O)c3cccc(O)c3n(C)c12 [Citrusinine II, citrusinine II]	42.6 ± 4.81 µM	20 ± 3.89 µM	6.17 ± 2.29 µM	no effect on viability	attenuated	significantly protected
COc1c(O)cc2c(c1O)c(=O)c1cccc(O)c1n2C [Glycosparvarine, glycosparvarine]	18.6 ± 2.77 µM	22.9 ± 2.24 µM	6.58 ± 2.03 µM	no effect on viability	attenuated	
CC(C)=CCc1c(O)c(CC=C(C)C)c2c(c1O)c(=O)c1cccc(O)c1n2C [N-methylatalaphylline]	49.1 ± 2.75 µM	50.7 ± 1.02 µM	7.32 ± 0.09 µM			
CC(C)=CCc1c2c(c3c(c1O)c(=O)c1cccc(O)c1n3C)C=CC(C)(C)O2 [N-methylatalaphyllinine]	54 ± 2.03 µM	57.5 ± 3.52 µM	6.14 ± 3.85 µM			
CC(C)=CCc1c2c(c(O)c3c(=O)c4cccc(O)c4n(C)c13)C=CC(C)(C)O2 [N-methylcycloatalaphylline A]	66.6 ± 2.51 µM	79.6 ± 3.26 µM	5.84 ± 0.99 µM			
Cc1c(C)c2c(c(C)c1O)CCC(C)(C(=O)O)O2 (stereo not drawn) [Trolox, reference compound]		58.9 ± 2.38 µM				
